The text below walks through data of US12678424B2, “Method for preventing and/or treating systemic inflammation” (THE BOARD OF TRUSTEES OF THE LELAND STANFORD JUNIOR …, priority 2015, dated 2026).

Holding throughout (format): in vivo, mice (C57BL6)
In assay [1] the test system is microglia. Nature of the assay: Flow cytometry of brain microglia for CCL2 and TNF-α production in older mice. The conditions noted are these: 25 mg/kg oral 3 times a week for 15 weeks from 37 weeks of age, vs vehicle-treated older mice. The protocol: (§1) All animal studies were conducted under protocols approved by APLAC from Stanford University. Older and young animals on C57BL6 background were purchased from Taconic. Older animals are defined as those above 36 weeks of age, when physiological aging process accelerates in mice, while young counterparts are 20 weeks of age. Data are presented as mean±SEM. Two-tailed Student's t-test and two-way ANOVA were used for statistical analyses. A p value of <0.05 is considered to be statistically significant. Older animals were orally treated 3 times a week for 15 weeks with 0.5% methylcellulose (vehicle) or ZLN005 (Sigma) at 25 mg/kg in vehicle, starting at 37 weeks of age. Treated older animals (n=6), non-treated older animals or aged animals (n=6), and young animals (20 weeks old, n=6) were sacrificed after drug treatment and their brain tissues were collected. PBS-perfused brain tissues of sacrificed animals were digested with Collagenase I and processed for flow cytometry (Ginhoux et al Science. 330:841-5.2010). Brain microglia were phenotyped with fluorochrome-labeled antibodies to CCL2 and TNF-α (Biolegend) for flow cytometric acquisition (LSRII. BD) and analysis (FlowJo). The results are summarized in FIG. 2: Y-axis represents % of microglia that express CCL2 or TNF-α. ANOVA was used for statistical analysis. […]
(In general: In flow cytometry, cells or beads pass a laser one at a time.)

The subject of assay [2] is TNF-α. Nature of the assay: Serum TNF-α by ELISA in older mice (systemic inflammation). The conditions noted are these: 25 mg/kg oral 3 times a week for 15 weeks, vs vehicle-treated older mice, p<0.05. The protocol:
as §1, with “TNF-α levels” for “The results are summarized”, “serum” for “FIG. 2: Y-axis represents %”, “young mice, vehicle-treated older mice, and ZLN-treated older mice (from Example 2) were measured by ELISA to determine TNF-α levels which indicated systemic inflammation.” for “microglia that express CCL2 or TNF-α. ANOVA was used for statistical analysis.”
In general terms: In an ELISA, binding on a coated surface is turned into a signal by an enzyme label.

Assay [3] in a line: Marble burying assay in older mice. As to conditions: older mice at 52 weeks of age, 25 mg/kg oral 3 times a week for 15 weeks, 12 marbles, 30 minutes, vs vehicle-treated older mice, p<0.05. Here is the method:
All animal studies were conducted under protocols approved by APLAC from Stanford University. Older and young animals on C57BL6 background were purchased from Taconic. Older animals are defined as those above 36 weeks of age, when physiological aging process accelerates in mice, while young counterparts are 20 weeks of age. Data are presented as mean±SEM. Two-tailed Student's t-test and two-way ANOVA were used for statistical analyses. A p value of <0.05 is considered to be statistically significant.
Animals were orally treated 3 times a week for 15 weeks with 0.5% methylcellulose (vehicle) or ZLN005 (Sigma) at 25 mg/kg in vehicle, starting at 37 weeks of age. At 52 weeks of age, the older animals were subjected to a marble burying assay, a behavioral test of anxiety (Dekeyne A. Therapie. 60:477-84.2005). Each animal was given 12 marbles on top of bedding in individual cage and allowed to run free in the cage for 30 minutes. After this period of time, each buried marble was individually assigned a number based on its degree of being buried (1=90-100% hidden, 0.75=60-90% hidden, 0.5=30-60% hidden, 0=below 30% hidden), and then the sum of the numbers of 12 marbles buried by each mouse is calculated as the marble burying score of the mouse. […] Unpaired t-test was used for statistical analysis.

Assay [4] has as its system microglia. Kind of assay: Flow cytometry of brain microglia for Slc2al expression and 2-NBDG glucose uptake in older mice. As to conditions: 25 mg/kg oral 3 times a week for 15 weeks from 37 weeks of age, vs vehicle-treated older mice, p<0.05. Here is the method:
All animal studies were conducted under protocols approved by APLAC from Stanford University. Older and young animals on C57BL6 background were purchased from Taconic. Older animals are defined as those above 36 weeks of age, when physiological aging process accelerates in mice, while young counterparts are 20 weeks of age. Data are presented as mean±SEM. Two-tailed Student's t-test and two-way ANOVA were used for statistical analyses. A p value of <0.05 is considered to be statistically significant. Older animals were orally treated 3 times a week for 15 weeks with 0.5% methylcellulose (vehicle) or ZLN005 (Sigma) at 25 mg/kg in vehicle, starting at 37 weeks of age. Treated older animals (n=6), non-treated older animals (n=6), and young animals (20 weeks old, n=6) were sacrificed after drug treatment and their brain tissues collected. PBS-perfused brain tissues of sacrificed animals were digested with Collagenase I and processed for flow cytometry (Ginhoux et al Science, 330:841-5, 2010). Brain microglia were phenotyped with 2-NBDG (2-(N-(7-nitrobenz-2-oxa-1,3-diazol-4-yl)amino)-2-deoxyglucose, Invitrogen) and anti-Slc2al antibody (RnD) for flow cytometric acquisition (LSRII, BD) and analysis (FlowJo). The results are summarized in FIG. 1: Y-axis represents % of microglia that either express glucose transporter Slc2al or have taken up glucose fluorescent analog 2-NBDG. […]

In the case of `CC(C)(C)c1ccc(-c2nc3ccccc3[nH]2)cc1` [ZLN005, 2-(4-tert-Butylphenyl)-1H-benzimidazole], the “% of microglia that express CCL2” value in assay [1] (p<0.01) is listed as “decreased”. Moreover, the “% of microglia that express TNF-α” value in assay [1] (p<0.05) was “decreased”. Moreover, the “concentration of TNF-α in serum” value in assay [2] is given as “decreased”. The marble burying score entry in assay [3] was “reduced the anxiety phenotype”. In addition, in assay [4], the “% of microglia that express glucose transporter Slc2al” value was “decreased” and the “% of microglia that have taken up glucose fluorescent analog 2-NBDG (glucose uptake)” value is listed as “decreased”.
